The values below come from patent US20160143884A1, “USE OF TETRAHYDROINDAZOLYLBENZAMIDE AND TETRAHYDROINDOLYLBENZAMIDE DERIVATIVES FOR THE TREATMENT OF HUMAN IMMUNODEFICIENCY VIRUS (HIV) AND ACQUIRED IMMUNE DEFICIENCY SYNDROME (AIDS)” (Esanex, Inc., priority 2014, published 2016).

Each structure is given as a SMILES string. Where only a bound is given, the exact number is not on record here.

The subject of data set [1] is single cycle HIV in SupT1 cells.
Method: HIV-integration was evaluated in a cell based assay with ALU-PCR read out. Using single cycle virus (Env-deficient, containing Luc, pseudotyped with VSV-g), SupT1 cells were infected for 36 hours. Cells were treated with DMSO, Raltegravir (integrase inhibitor), 500 nM Compound 9, or Nelfinavir (protease inhibitor). It was expected that Raltegravir should affect both Luc and ALU-PCR data and Nelfinavir should not (downstream of both). Cells were split in half-one part for Luc-assays, and one part for ALU-PCR.
Data set [2] deals with JLAT clones (A2; 9.2). Put plainly: HIV-1 reactivation and inhibition of reactivation in JLAT clones (GFP, flow cytometry). The data set is classed as cell-based, human. Here is the method: Two JLAT clones (A2; 9.2) were incubated for 24 hours with tumor necrosis factor alpha (TNFα), phorbol myristate 13-acetate (PMA), Compound 9 (9, various doses), and all combinations of these three compounds. JLAT cells make GFP when HIV is reactivated from latency.
J-Lat cells (JLAT 9.2, 5×10^5/mL) were cultured in Gibco RPMI-1640 media, supplemented with 10% (vol/vol) FCS and 5% (vol/vol) penicillin streptomycin at 37° C., 5% CO2 under sterile conditions. For HIV-1 reactivation experiments, 10^6 cells/mL were mixed with TPA (10 nM final, unless otherwise indicated) or TNFα (5 ng/mL final) and immediately 150 μL of cell mix was dispensed into 96-well plates. Compound 9 was added to the 96-well plates in serial dilutions. Cells were incubated for 24 h before analysis by flow cytometry.
JLAT (A2) cells were incubated with the following treatments: media (negative control), DMSO (SNX control), 1 ng/mL TNFα, 2 μM PMA, or these agonists+1, 0.1, 0.01, or 0.001 Compound 9 (left to right in the attached figure). 20 h post incubation, the cells were washed, fixed, and run on a flow cytometer. Media, DMSO, TNFα, and PMA were each run in quadruplicate; all other reactions were run in singlet. >10,000 events (cells) were counted for each treatment. Data are expressed as % GFP+cells (negative cells set by gating on media alone control).
A general note: In flow cytometry, cells or beads pass a laser one at a time.

Data set [3] concerns PBMCs. Put plainly: MTS staining for PBMC viability to measure cytotoxicity. It counts as cell-based, human. An excerpt:
(§1) Pooling (mixing) of mononuclear cells from more than one donor is used to minimize the variability observed between individual donors, which results from quantitative and qualitative differences in HIV infection and overall response to the PHA and IL-2 of primary lymphocyte populations. Each plate contains virus/cell control wells (cells plus virus), experimental wells (drug plus cells plus virus) and compound control wells (drug plus media without cells, necessary for MTS monitoring of cytotoxicity). […] Therefore, infected wells are used in the assessment of both antiviral activity and cytotoxicity. […] The PBMC cultures are maintained for seven days following infection at 37° C., 5% CO2. After this period, cell-free supernatant samples are collected for analysis of reverse transcriptase activity and/or p24 antigen content. Following removal of supernatant samples, compound cytotoxicity is measured by addition of MTS to the plates for determination of cell viability. Wells are also examined microscopically and any abnormalities are noted. MTS Staining for PBMC Viability to Measure Cytotoxicity Protocol: At assay termination, assay plates are stained with the soluble tetrazolium-based dye MTS (CellTiter 96 Reagent, Promega) to determine cell viability and quantify compound toxicity. The mitochondrial enzymes of metabolically active cells metabolize MTS to yield a soluble formazan product. This allows the rapid quantitative analysis of cell viability and compound cytotoxicity. […] At termination of the assay, 20 uL of MTS reagent is added per well. The microtiter plates are then incubated 4-6 hrs at 37° C. The incubation intervals were chosen based on empirically determined times for optimal dye reduction. Adhesive plate sealers are used in place of the lids, the sealed plate is inverted several times to mix the soluble formazan product and the plate is read spectrophotometrically at 490/650 nm with a Molecular Devices Vmax or SpectraMaxPlus plate reader.

Test in data set [4]: as above
The conditions noted are these: human, PBMCs. The data set is classed as cell-based, human.
Text: as §1

In data set [5] the test system is 2LTR non-integrated circular form of the HIV genome. Put plainly: HIV integration in 2LTR assay (real-time PCR). It counts as cell-based, HIV-1. For orientation: Real-time PCR tracks product formation cycle by cycle.
Data set [6] relates to Tat-mediated activation of the HIV-LTR promoter. Briefly: TAT-mediated transactivation, HIV-LTR-Luc reporter. The data set is classed as cell-based, HIV-1. Here is the method: SupT1 cells were transfected with a HIV-LTR-Luc construct (LAI), +/−Tat (pcTAT, subtype B), along with a constitutively active renilla-luciferase construct (to normalize for transfection efficiency). Firefly and renilla activity were monitored (sequentially, same sample) 24 hours post transfection. DMSO was used as a negative control; and Compound 9 was added at 1, 0.1, and 0.001 μM. These reactions were done in singlet (pilot). TZM-bl cells are HeLa derived cells that contain CD4, CCR5, and an integrated HIV promoter (LTR) fused to firefly luciferase. Untransfected cells (LTR) or Tat-transfected cells (LTR+TAT) were incubated with Compound 9 at the indicated doses at the time of transfection. DMSO was used as a negative control. Luciferase activity was measured 20 hours post-transfection using a commercially-available luciferase substrate (Promega) and the results are shown in FIG. 8. […] Repeat results are illustrated in Tat-Experiment 2 graph.

Data set [7] relates to Rev-dependent VLP production. Put plainly: Virus like particles (VLP) production in 293T cells, Gag(p24) ELISA. The data set is classed as cell-based. The conditions noted are these: 293T cells, 1, 0.1 and 0.01. An excerpt: 293T Cells were transfected with a gag-pol-RRE construct. When Rev is present and/or functioning, Gag is produced, forms virus like particles (VLP), and VLP are secreted into the culture supernatant. VLP in the media are quantified using a quantitative Gag(p24) ELISA.
For orientation: ELISA stands for enzyme-linked immunosorbent assay.

On to `CC1(C)CC(=O)c2c(C(F)(F)F)nn(-c3ccc(C(N)=O)c(N[C@H]4CC[C@H](O)CC4)c3)c2C1` [Compound 9, 4-(6,6-Dimethyl-4-oxo-3-trifluoromethyl-4,5,6,7-tetrahydro-indazol-1-yl)-2-(trans-4-hydroxy-cyclohexylamino)-benzamide], for which the “Integration of HIV-1 viral DNA into host cell” value in data set [1] is given as “inhibit”. Further, the “Reduction of single cycle HIV” value in data set [1] (500 nM, SupT1 cells infected 36 hours) is listed as “at least 90%”. Besides, the “Increase in GFP positive cells (HIV reactivation)” value in data set [2] (JLAT (A2) model) is recorded as “about 2 fold”. In addition, the “Inhibition of TNFα or PMA (phorbol ester) induced HIV-1 reactivation” value in data set [2] (JLAT A2 and JLAT 9.2 cells) is given as “does not inhibit”. Further, in data set [3], the “TC 90% (90% cytotoxicity)” value was greater than 2 µM. The “TC 95% (95% cytotoxicity)” value in data set [3] is greater than 2 µM. The same molecule had a CC50 at 7 days in data set [4] of 0.03 µM. Further, the “Expression level of 2LTR” value in data set [5] (10 nM, both time points) is listed as “expression levels similar to HIV Only”; in data set [5] (100 nM) it was “highest expression levels of 2LTR over all other samples”; in data set [5] (1 μM) it was “highest expression levels of 2LTR over all other samples”. Also, in data set [6], the Tat-mediated transactivation result was “inhibit”. For the same molecule, the “Inhibition of Rev-dependent VLP production” value in data set [7] is on record as “does not appear to robustly inhibit”.

For orientation: CC50 means the concentration at which the toxic effect on the cells reaches its halfway point.
